Data published in ChEMBL document CHEMBL3259572, “Euodenine A: a small-molecule agonist of human TLR4” (J Med Chem, 2014).
Active and inactive are the calls of the source. No cut-off for these calls is given here.

Columns and labels:
[1] = target: T1, Toll-like receptor 8 (Homo sapiens) (UniProt Q9NR97); assay: Agonist activity at human recombinant TLR8 expressed in HEK293 cells at 10 uM by SEAP reporter assay; assay type: cell-based
T1 sequence (whole entry): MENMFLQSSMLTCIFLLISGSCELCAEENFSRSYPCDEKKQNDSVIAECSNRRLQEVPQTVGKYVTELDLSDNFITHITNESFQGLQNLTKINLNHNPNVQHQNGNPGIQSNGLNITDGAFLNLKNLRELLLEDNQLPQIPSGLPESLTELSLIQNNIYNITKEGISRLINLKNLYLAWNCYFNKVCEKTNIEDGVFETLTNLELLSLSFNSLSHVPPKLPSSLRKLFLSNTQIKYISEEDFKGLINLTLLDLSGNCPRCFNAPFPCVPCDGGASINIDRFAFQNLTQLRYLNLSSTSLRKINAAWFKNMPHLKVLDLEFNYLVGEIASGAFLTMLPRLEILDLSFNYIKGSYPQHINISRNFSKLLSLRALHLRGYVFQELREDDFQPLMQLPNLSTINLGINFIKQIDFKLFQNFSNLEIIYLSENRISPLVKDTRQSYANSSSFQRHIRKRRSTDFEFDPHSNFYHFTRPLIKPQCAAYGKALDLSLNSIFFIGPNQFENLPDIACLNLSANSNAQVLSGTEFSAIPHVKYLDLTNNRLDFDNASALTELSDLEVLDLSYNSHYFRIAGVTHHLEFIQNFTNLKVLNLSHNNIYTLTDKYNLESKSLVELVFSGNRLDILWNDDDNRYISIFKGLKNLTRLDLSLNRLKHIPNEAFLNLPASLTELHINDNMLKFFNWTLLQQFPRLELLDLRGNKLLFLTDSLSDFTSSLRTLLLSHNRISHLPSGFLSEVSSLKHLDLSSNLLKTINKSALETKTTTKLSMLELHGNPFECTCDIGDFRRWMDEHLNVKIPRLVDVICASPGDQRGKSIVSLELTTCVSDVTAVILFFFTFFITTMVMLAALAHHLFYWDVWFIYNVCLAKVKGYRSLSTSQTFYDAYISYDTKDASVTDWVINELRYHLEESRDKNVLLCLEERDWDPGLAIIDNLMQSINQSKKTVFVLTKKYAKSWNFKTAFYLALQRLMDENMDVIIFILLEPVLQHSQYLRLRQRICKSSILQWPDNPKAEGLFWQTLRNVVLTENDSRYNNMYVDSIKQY

[2] = target: Toll-like receptor 4 (Homo sapiens, UniProt O00206); assay: Agonist activity at human recombinant TLR4 expressed in HEK293 cells coexpressed with human MD2 assessed as TNFalpha response by NFkappaB reporter assay; assay type: cell-based
[3] = test system: PBMC; assay: Induction of IL-8 production in human PBMC at 10 uM by ELISA; assay type: functional, cell-based
[4] = target: T2, Toll-like receptor 9 (Homo sapiens) (UniProt Q9NR96); assay: Agonist activity at human recombinant TLR9 expressed in HEK293 cells at 10 uM by SEAP reporter assay; assay type: cell-based
T2 sequence (whole entry): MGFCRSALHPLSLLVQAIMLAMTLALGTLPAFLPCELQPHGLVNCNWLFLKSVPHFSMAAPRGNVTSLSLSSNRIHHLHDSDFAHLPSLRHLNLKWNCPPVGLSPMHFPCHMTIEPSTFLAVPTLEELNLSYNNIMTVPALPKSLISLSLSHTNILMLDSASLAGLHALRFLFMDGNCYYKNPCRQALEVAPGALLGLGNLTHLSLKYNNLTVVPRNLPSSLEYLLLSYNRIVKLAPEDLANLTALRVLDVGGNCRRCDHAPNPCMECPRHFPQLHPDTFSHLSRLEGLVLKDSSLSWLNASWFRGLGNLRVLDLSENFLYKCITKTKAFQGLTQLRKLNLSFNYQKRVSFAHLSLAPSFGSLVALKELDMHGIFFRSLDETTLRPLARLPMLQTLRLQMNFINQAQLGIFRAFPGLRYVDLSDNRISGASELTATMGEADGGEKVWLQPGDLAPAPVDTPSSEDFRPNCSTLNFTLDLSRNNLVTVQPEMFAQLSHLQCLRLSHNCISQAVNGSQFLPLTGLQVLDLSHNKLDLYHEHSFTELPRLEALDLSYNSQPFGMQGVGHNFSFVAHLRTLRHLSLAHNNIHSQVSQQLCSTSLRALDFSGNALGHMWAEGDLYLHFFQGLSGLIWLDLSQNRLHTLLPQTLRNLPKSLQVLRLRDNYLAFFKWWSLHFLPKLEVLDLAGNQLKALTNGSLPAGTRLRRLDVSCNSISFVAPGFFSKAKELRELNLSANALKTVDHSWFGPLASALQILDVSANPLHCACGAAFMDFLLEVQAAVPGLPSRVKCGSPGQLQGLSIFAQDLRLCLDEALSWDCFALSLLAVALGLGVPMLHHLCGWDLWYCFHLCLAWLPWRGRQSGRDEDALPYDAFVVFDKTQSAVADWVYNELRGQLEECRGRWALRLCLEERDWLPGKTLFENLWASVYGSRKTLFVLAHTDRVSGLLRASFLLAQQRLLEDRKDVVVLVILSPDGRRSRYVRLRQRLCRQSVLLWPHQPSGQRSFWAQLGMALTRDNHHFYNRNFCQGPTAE

Chain of Toll-like receptor 4 (O00206 whole entry): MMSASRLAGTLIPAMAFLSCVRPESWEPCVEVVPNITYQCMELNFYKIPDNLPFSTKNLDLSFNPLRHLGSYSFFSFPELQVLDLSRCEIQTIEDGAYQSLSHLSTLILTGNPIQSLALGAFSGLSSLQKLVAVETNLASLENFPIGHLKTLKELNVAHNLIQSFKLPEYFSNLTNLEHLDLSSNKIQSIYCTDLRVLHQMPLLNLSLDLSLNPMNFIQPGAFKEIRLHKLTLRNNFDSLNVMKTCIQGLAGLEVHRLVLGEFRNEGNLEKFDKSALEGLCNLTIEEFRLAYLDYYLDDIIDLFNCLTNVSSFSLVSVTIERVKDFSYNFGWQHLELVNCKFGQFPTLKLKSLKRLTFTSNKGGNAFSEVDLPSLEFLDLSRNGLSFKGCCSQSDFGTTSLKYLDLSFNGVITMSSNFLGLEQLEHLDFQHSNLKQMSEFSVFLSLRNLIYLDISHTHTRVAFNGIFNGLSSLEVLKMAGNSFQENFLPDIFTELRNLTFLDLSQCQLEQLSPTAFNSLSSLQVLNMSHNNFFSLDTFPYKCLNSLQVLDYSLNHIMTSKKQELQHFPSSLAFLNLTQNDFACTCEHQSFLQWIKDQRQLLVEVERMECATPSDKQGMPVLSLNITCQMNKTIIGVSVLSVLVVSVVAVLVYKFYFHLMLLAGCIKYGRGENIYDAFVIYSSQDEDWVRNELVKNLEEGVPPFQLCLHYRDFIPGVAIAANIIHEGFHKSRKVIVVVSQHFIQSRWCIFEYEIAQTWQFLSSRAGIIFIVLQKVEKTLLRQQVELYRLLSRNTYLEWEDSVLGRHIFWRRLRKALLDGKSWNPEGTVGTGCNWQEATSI

Activity [1]: inactive
Activity [2]: Active
Activity [4]: inactive
SMILES: COc1cc([C@@H]2[C@@H](C)[C@H]3[C@@H]2c2c(c4ccccc4[nH]c2=O)OC3(C)C)cc(OC)c1OC
Activity [3]: Active
